Measured values reported in publication PMC6261607, “Novel high–throughput myofibroblast assays identify agonists with therapeutic potential in pulmonary fibrosis that act via EP2 and EP4 receptors” (PLoS ONE, 2018).
Read-outs that look alike come from different tables or passages of the source.

Key:
[1] = test system: normal human lung fibroblasts (NHLF); assay: Nuclear count in the HCA, standard assay; format: cell-based; conditions: standard HCA, NHLF, 5 ng/ml TGF–β1, 48 h, read-out: Nuclear count IC50
In short: (§1)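 NHLF starved 24 h in serum-free basal medium with 0.1% BSA, then given compounds together with 5 ng/ml TGF-β1 for 48 h (0.6% DMSO). Methanol-fixed cells imaged for DAPI, α-SMA and FN; an SVM trained on ±TGF-β1 controls classified each cell, giving per-well % myofibroblast differentiation and nuclear counts.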

[2] = test system: α–SMA protein in NHLF cells; assay: RapidFire MS/MS quantification of α–SMA (IPQA), standard assay; format: cell-based, human
Protocol: (§2) Cell culture medium was removed and cells were lysed on ice by adding 5 μl / well of pre–cooled protein extraction buffer containing 10 mM Tris–HCl (pH 8.0), 6 M urea and 2 M thiourea and shaking on ice on a plate shaker at 600 rpm for 30 min.
(§3) Cell lysate was transferred to a 96–well polypropylene–PCR–plate. 15 μl / well denaturation buffer (6 M urea, 50 mM ammonium bicarbonate) and 2 μl / well of 50 mM TCEP were added and samples were denatured for 1 h at 60°C using the Veriti 96–well Fast Thermal Cycler System (Applied Biosystem) with a heated lid. Plates were allowed to cool to RT. Subsequently, 2 μl of 100 mM iodoacetamide were added per well to derivatize cysteine residues. Plates were then sealed and vortexed for 2 min in the dark and incubated for 30 min at 37°C in a thermal cycler with a heated lid. 90 μl of 50 mM ammonium bicarbonate pH 7.8 were added, followed by the addition of 10 μl of trypsin at 0.02 μg / ml. Samples were trypsin–digested overnight at 37°C in a thermal cycler with heated lid. […] Samples were desalted under vacuum using an Oasis HLB 96–well (30 μm particle size, 5 mg sorbent / well) reverse phase cartridge according to the manufacturer’s instructions and eluted with 170 μl of 90% acetonitrile, 0.1% formic acid. Samples were dried down with a flow of nitrogen at 40°C, left to cool to RT and re–suspended in 40 μl 5% acetonitrile, 0.1% formic acid on a plate shaker set to 1400 rpm for 5 min. Plates were centrifuged at 4,000 rpm for 10 min and 2 times 12 μl / well of supernatant were transferred into separate 96–well plates (Greiner Bio–One), sealed and stored at 4°C until analyzed by MS / MS.
(§4) Surrogate tryptic peptides were chosen for detection of COL1 (COL1A1), α–SMA (ACTA) and tubulin (TBA1A1) and crude synthetic peptides were purchased from Thermo Fischer. After several rounds of optimization following standard workflows, […] (COL1 / COL1A1), […] (α–SMA / ACTA) and […] LC–MS / MS analysis was performed on a RapidFire™ RF360 system (Agilent Technologies) coupled to an API 5500 (ABSciex) with positive ion electrospray ionization. […] Detection was performed using multiple reaction monitoring (MRM) mode to monitor parent⟶product ion transitions (m / z). […] The source parameters were curtain gas (CUR) nitrogen: 20 psig; collision gas (CAD): 7 psig; ion source gas 1: 50.0 psig; ion source gas 2: 50.0 psig; ion spray voltage (IS): 5500 V; turbo heater temperature (TEM): 600°C; entrance potential (EP): 10V. Peak areas for COL1A1 and ACTA were normalized by dividing by TBA1A peak area.

[3] = test system: COL1 protein in NHLF cells; assay: RapidFire MS/MS quantification of COL1 (IPQA), standard assay; format: cell-based, human
Protocol: as §2, §3, §4

[4] = test system: normal human lung fibroblasts (NHLF); assay: Phenotypic high-content assay (HCA) of TGF–β1–induced fibroblast–to–myofibroblast differentiation; format: cell-based; conditions: for IC50: 5 ng/ml TGF–β1 for 48 h, compound added with TGF–β1, mean ± SD, read-out: HCA IC50; for inhibition at 10 µM: read-out: Effect HCA at 10 µM [% inhibition], 10 µM compound, 5 ng/ml TGF–β1, 48 h
In short: as §1

[5] = Homo sapiens, NHLF, 5 ng/ml TGF–β1, lysed 48 h after TGF–β1, normalized to tubulin, mean ± SD, read-out: MS / MS α–SMA IC50
[6] = Homo sapiens, Col1, NHLF, 5 ng/ml TGF–β1, lysed 48 h after TGF–β1, normalized to tubulin, mean ± SD, read-out: MS / MS COL1 IC50
[7] = Homo sapiens, Fibroblast, 48 h, NHLF
[8] = Homo sapiens, NHLF, 5 ng/ml TGF–β1, 48 h, representative experiment of supplementary figure, read-out: IC50 on α–SMA (curve of a single experiment)
[9] = Homo sapiens, Col1, 48 h, NHLF, 5 ng/ml TGF–β1, 48 h, representative experiment of supplementary figure, read-out: IC50 on COL1 (curve of a single experiment)
[10] = Homo sapiens, Col1, 48 h, NHLF, 5 ng/ml TGF–β1, lysed 48 h after TGF–β1, normalized to tubulin, mean ± SD, read-out: MS / MS COL1 IC50
[11] = NHLF, 5 ng/ml TGF–β1, lysed 48 h after TGF–β1, normalized to tubulin, mean ± SD, read-out: MS / MS COL1 IC50
[12] = Homo sapiens, Col1, NHLF, 5 ng/ml TGF–β1, 48 h, representative experiment of supplementary figure, read-out: IC50 on COL1 (curve of a single experiment)

Compound | IC50 ([1]; Homo sapiens, Fibroblast, 48 h) | IC50 [2, 5] | IC50 [3, 6] | IC50 [4, 7] | IC50 [2, 8] | IC50 [3, 10] | other results
C[C@]12CC[C@H](O)C[C@H]1CC[C@@H]1[C@@H]2C[C@@H](O)[C@]2(C)[C@@H](C3=CC(=O)OC3)CC[C@]12O [Digoxigenin] | > 25000 nM | 38 ± 6 nM | 85 ± 8 nM | 220 nM | – | – | IC50 [1]: 19000 nM; concentrations that reduced cell surface area (CellMask Orange stain) ([4]; HCA, NHLF): ≥ 1250 nM; inhibition at 10 µM ([4]; Homo sapiens, Fibroblast): 100%
CCCCC[C@H](O)/C=C/[C@H]1[C@H](O)CC(=O)[C@@H]1CCCCCCC(=O)O [Alprostadil] | > 25000 nM | 1.9 ± 1.6 nM | – | 9 nM | 0.6 nM | 5 ± 1.4 nM | IC50 [1]: > 50000 nM; effect on basal α–SMA expression ([2]; NHLF in the absence of TGF–β1): no effect; IC50 [3, 9]: 3.2 nM; effect on basal COL1 expression ([3]; NHLF in the absence of TGF–β1): no effect; inhibition at 10 µM ([4]; Homo sapiens, Fibroblast): 97%; IC50 ([4]; NHLF): 8.6 ± 10 nM
CCCCC[C@H](O)/C=C/[C@H]1[C@H](O)CC(=O)[C@@H]1C/C=C\CCCC(=O)O [PGE2, prostaglandin E2] | > 2500 nM | 1.2 ± 1.2 nM | – | – | 0.3 nM | 4.9 ± 4.4 nM | IC50 [3, 9]: 1.8 nM
O=C1CC[C@H](/C=C/[C@@H](O)Cc2ccccc2)N1CCCCCCc1nn[nH]n1 [Merck–19a] | – | – | – | – | – | – | IC50 ([2]; NHLF, 5 ng/ml TGF–β1, lysed 48 h after TGF–β1, normalized to tubulin, mean ± SD, read-out: MS / MS α–SMA IC50): 108 ± 87 nM; IC50 [3, 11]: 17.7 ± 7 nM
CC(C)(C)c1ccc(CN(Cc2cccc(OCC(=O)O)c2)S(=O)(=O)c2cccnc2)cc1 [Evatanepag] | > 50000 nM | 26 ± 29 nM | 11 nM | 82 ± 110 nM | 5.5 nM | – | IC50 [3, 12]: 11.4 nM
O=C(CC1NCCCC1O)Cn1cnc2cc(Br)c(Cl)cc2c1=O (stereo not drawn) [Halofuginone] | > 46000 nM | 27 ± 4 nM | 27 ± 1 nM | 690 ± 320 nM | 24 nM | – | IC50 [3, 12]: 28 nM
COC(=O)c1ccc2c(c1)NC(=O)/C2=C(\Nc1ccc(N(C)C(=O)CN2CCN(C)CC2)cc1)c1ccccc1 [Nintedanib] | 1400 nM | 500 ± 120 nM | – | 760 ± 130 nM | – | 1600 nM | –
TGF–β1: transforming growth factor–β1, stimulus of myofibroblast differentiation | – | – | – | – | – | – | α-SMA / tubulin ratio ([2]; NHLF, 5 ng/mL TGF-β1): 0.51 ± 0.06; EC50 of α–SMA protein increase ([2]; NHLF, 48 hours, MS/MS (n = 8)): 0.07 ± 0.01 ng/mL; increase of α–SMA protein ([2]; NHLF, at 48 hours): about 3 fold; COL1 / tubulin ratio ([3]; NHLF, 5 ng/mL TGF-β1): 0.33 ± 0.07; EC50 of COL1 protein increase ([3]; NHLF, 48 hours, MS/MS (n = 8)): 0.05 ± 0.01 ng/mL; increase of COL1 protein ([3]; NHLF, at 48 hours): about 3 fold; EC50 of myofibroblast differentiation in HCA ([4]; NHLF, 48 h, mean ± SD (n = 7)): 0.02 ± 0.01 ng/mL
Cc1cccc(-c2[nH]c(CNc3ccccc3F)nc2-c2ccc3ncnn3c2)n1 [EW–7197] | > 25000 nM | 51 ± 17 nM | – | 80 ± 30 nM | – | 111 ± 30 nM | IC50 [3, 11]: 110 ± 30 nM; IC50 ([4]; NHLF): 82 ± 30 nM
